Results as given in patent US9995734B2, “Human T cell line assay for evaluating the immunologic identity of glatiramer acetate preparations” (Mylan Inc., priority 2013, dated 2018).
Several values for one entry are separate records, joined by “and”; a condition that tells them apart may be missing. Identical values can stand only once.

Legend:
Format in all cases: cell-based, human
Donor 3 COP T-Cell Lines = test: ATP proliferation assay (CellTiter Glo), Donor 3 COP T-cell lines, incl. reactivity to non-canonical GA peptides; settings: for Non-Canonical Peptide Reactivity: at least one proliferation value >=2 times no antigen control
Donor 4 COP T-Cell Lines = test: ATP proliferation assay (CellTiter Glo), Donor 4 COP T-cell lines, incl. reactivity to non-canonical GA peptides; settings: for Non-Canonical Peptide Non-Reactivity: proliferation <2 times no antigen control; for Proliferation (luminescent ATP assay), Mean: T-cell line 205-1F4, autologous B-LCL
Donor 3 GMA T-Cell Lines = test: ATP proliferation assay (CellTiter Glo), Donor 3 GMA T-cell lines, incl. reactivity to non-canonical GA peptides; settings: for Non-Canonical Peptide Non-Reactivity: proliferation <2 times no antigen control; for Non-Canonical Peptide Reactivity: at least one proliferation value >=2 times no antigen control

poly (Lys-Tyr; 1:1) [LT 11]
Non-Canonical Peptide Reactivity (Donor 3 COP T-Cell Lines; 165-C4C): LT 11 | Non-Canonical Peptide Reactivity (Donor 3 COP T-Cell Lines; 165-C7C): LT 11 | proliferation response to non-canonical GA peptides (Donor 3 COP T-Cell Lines; 165-F3C (Day 77) and 165-C4C (Day 66), 0, 1, 3, 10 μg/mL): responded well | Non-Canonical Peptide Reactivity (Donor 3 COP T-Cell Lines; 165-F3C): LT 11 | Non-Canonical Peptide Non-Reactivity (Donor 3 COP T-Cell Lines; 165-F6C, proliferation <2 times no antigen control): LT 11 | Reactive T-Cell Line (Donor 3 COP T-Cell Lines; Donor 3 COP lines, at least a 50% increase in proliferation relative to a control after stimulation with the non-canonical GA peptide): 165-C4C (Donor 3) and 165-C7C (Donor 3) and 165-F3C (Donor 3) | Nonreactive T-Cell Line (Donor 3 COP T-Cell Lines; Donor 3 COP lines, stimulation with the non-canonical GA peptide): 165-F6C (Donor 3) | Proliferation (luminescent ATP assay), Mean (Donor 3 COP T-Cell Lines; T-cell line 165-C4C, 1 μg/mL antigen, Day 66 of culture, 0 μg/mL 1881): 2430 | Proliferation (luminescent ATP assay), Mean (Donor 3 COP T-Cell Lines; T-cell line 165-C4C, 3 μg/mL antigen, Day 66 of culture, 0 μg/mL 1881): 2701 | Proliferation (luminescent ATP assay), Mean (Donor 3 COP T-Cell Lines; T-cell line 165-C4C, 10 μg/mL antigen, Day 66 of culture, 0 μg/mL 1881): 4129 | Proliferation (luminescent ATP assay), Mean (Donor 3 COP T-Cell Lines; T-cell line 165-C7C, 1.25 μg/mL antigen, autologous B-LCL): 418 RLU | Proliferation (luminescent ATP assay), Mean (Donor 3 COP T-Cell Lines; T-cell line 165-C7C, 2.5 μg/mL antigen, autologous B-LCL): 305 RLU | Proliferation (luminescent ATP assay), Mean (Donor 3 COP T-Cell Lines; T-cell line 165-C7C, 5 μg/mL antigen, autologous B-LCL): 244 RLU | Proliferation (luminescent ATP assay), Mean (Donor 3 COP T-Cell Lines; T-cell line 165-C7C, 10 μg/mL antigen, autologous B-LCL): 119 RLU | Proliferation (luminescent ATP assay), Mean (Donor 3 COP T-Cell Lines; T-cell line 165-F3C, 1 μg/mL antigen, Day 77 of culture, 0 μg/mL 1563): 2144 | Proliferation (luminescent ATP assay), Mean (Donor 3 COP T-Cell Lines; T-cell line 165-F3C, 3 μg/mL antigen, Day 77 of culture, 0 μg/mL 1563): 2605 | Proliferation (luminescent ATP assay), Mean (Donor 3 COP T-Cell Lines; T-cell line 165-F3C, 10 μg/mL antigen, Day 77 of culture, 0 μg/mL 1563): 3608 | Proliferation (luminescent ATP assay), Mean (Donor 3 COP T-Cell Lines; T-cell line 165-F6C, 1.25 μg/mL antigen, Day 76 of culture, No Antigen value 517): 431 | Proliferation (luminescent ATP assay), Mean (Donor 3 COP T-Cell Lines; T-cell line 165-F6C, 2.5 μg/mL antigen, Day 76 of culture, No Antigen value 517): 518 | Proliferation (luminescent ATP assay), Mean (Donor 3 COP T-Cell Lines; T-cell line 165-F6C, 5 μg/mL antigen, Day 76 of culture, No Antigen value 517): 490 | Proliferation (luminescent ATP assay), Mean (Donor 3 COP T-Cell Lines; T-cell line 165-F6C, 10 μg/mL antigen, Day 76 of culture, No Antigen value 517): 736 | reactivity to non-canonical GA peptides (Donor 4 COP T-Cell Lines; 205-1F4 (sentence prints 165-1F4), Day 71, 0, 1, 3, 10 μg/mL): showed reactivity | reactivity to non-canonical GA peptide (Donor 4 COP T-Cell Lines; 205-1F4 (sentence prints 165-1F4), Day 80, 1, 2, 5, 10 μg/mL): showed reactivity | response relative to the no antigen control (Donor 4 COP T-Cell Lines; 205-1F4, Day 71, dose of 10 μg/mL antigen (text: Table 60)): 76.5 fold | response relative to the no antigen control (Donor 4 COP T-Cell Lines; 205-1F4, Day 80, dose of 10 μg/mL antigen (Table 58)): 17.3 fold | Non-Canonical Peptide Reactivity (Donor 4 COP T-Cell Lines; 205-1F4, at least one proliferation value >=2 times no antigen control): LT 11 | response relative to the no antigen control (Donor 4 COP T-Cell Lines; 205-1F4, text Day 80, dose of 10 μg/mL antigen (text: Table 59)): 10.4 fold | Non-Canonical Peptide Non-Reactivity (Donor 4 COP T-Cell Lines; 205-1H3): LT 11 | Non-Canonical Peptide Non-Reactivity (Donor 4 COP T-Cell Lines; 205-1H11): LT 11 | Reactive T-Cell Line (Donor 4 COP T-Cell Lines; Donor 4 COP lines, at least a 50% increase in proliferation relative to a control after stimulation with the non-canonical GA peptide): 205-1F4 (Donor 4) | Nonreactive T-Cell Line (Donor 4 COP T-Cell Lines; Donor 4 COP lines, stimulation with the non-canonical GA peptide): 205-1H3 (Donor 4) | Proliferation (luminescent ATP assay), Mean (Donor 4 COP T-Cell Lines; Day 71, 1 μg/mL antigen): 73850 | Proliferation (luminescent ATP assay), Mean (Donor 4 COP T-Cell Lines; Day 71, 3 μg/mL antigen): 154321 | Proliferation (luminescent ATP assay), Mean (Donor 4 COP T-Cell Lines; Day 71, 10 μg/mL antigen): 158776 | Proliferation (luminescent ATP assay), Mean (Donor 4 COP T-Cell Lines; Day 80, 1 μg/mL antigen): 3,675 | Proliferation (luminescent ATP assay), Mean (Donor 4 COP T-Cell Lines; Day 80, 2 μg/mL antigen): 4,589 | Proliferation (luminescent ATP assay), Mean (Donor 4 COP T-Cell Lines; Day 80, 5 μg/mL antigen): 7,626 | Proliferation (luminescent ATP assay), Mean (Donor 4 COP T-Cell Lines; Day 80, 10 μg/mL antigen): 8,853 | Reactivity (proliferation), Mean (Donor 4 COP T-Cell Lines; T-cell line 205-1H3, 1 μg/mL antigen, 0 μg/mL 4121.0): 4780.3 | Reactivity (proliferation), Mean (Donor 4 COP T-Cell Lines; T-cell line 205-1H3, 3 μg/mL antigen, 0 μg/mL 4121.0): 3083.3 | Reactivity (proliferation), Mean (Donor 4 COP T-Cell Lines; T-cell line 205-1H3, 10 μg/mL antigen, 0 μg/mL 4121.0): 3381.0 | Reactivity (proliferation), Mean (Donor 4 COP T-Cell Lines; T-cell line 205-1H11, 1 μg/mL antigen, 0 μg/mL 6941): 5961 RLU | Reactivity (proliferation), Mean (Donor 4 COP T-Cell Lines; T-cell line 205-1H11, 10 μg/mL antigen, 0 μg/mL 6941): 6698 RLU | Reactivity (proliferation), Mean (Donor 4 COP T-Cell Lines; T-cell line 205-1H11, 30 μg/mL antigen, 0 μg/mL 6941): 4303 RLU | proliferation response to non-canonical GA peptides (Donor 3 GMA T-Cell Lines; 165-05G (so in the source), minimum 55 days in culture, 0, 1, 3, 10 μg/mL): responded | Non-Canonical Peptide Non-Reactivity (Donor 3 GMA T-Cell Lines; 165-B5G): LT 11 | Non-Canonical Peptide Reactivity (Donor 3 GMA T-Cell Lines; 165-C5G): LT 11 | Non-Canonical Peptide Non-Reactivity (Donor 3 GMA T-Cell Lines; 165-E7G): LT 11 | Non-Canonical Peptide Non-Reactivity (Donor 3 GMA T-Cell Lines; 165-E9G): LT 11 | Non-Canonical Peptide Non-Reactivity (Donor 3 GMA T-Cell Lines; 165-F5G): LT 11 | Non-Canonical Peptide Reactivity (Donor 3 GMA T-Cell Lines; 165-F10G): LT 11 | Non-Canonical Peptide Non-Reactivity (Donor 3 GMA T-Cell Lines; 165-H11G): LT 11 | Reactive T-Cell Line (Donor 3 GMA T-Cell Lines; Donor 3 GMA lines, at least a 50% increase in proliferation relative to a control after stimulation with the non-canonical GA peptide): 165-C5G (Donor 3) and 165-F10G (Donor 3) | Nonreactive T-Cell Line (Donor 3 GMA T-Cell Lines; Donor 3 GMA lines, stimulation with the non-canonical GA peptide): 165-B5G (Donor 3) and 165-F5G (Donor 3) and 165-E7G (Donor 3) and 165-E9G (Donor 3) and 165-H11G (Donor 3) | Proliferation (luminescent ATP assay), Mean (Donor 3 GMA T-Cell Lines; T-cell line 165-B5G, 1.25 μg/mL antigen, Day 55 of culturing, No Antigen Value 846): 1497 RLU | Proliferation (luminescent ATP assay), Mean (Donor 3 GMA T-Cell Lines; T-cell line 165-B5G, 2.5 μg/mL antigen, Day 55 of culturing, No Antigen Value 846): 1724 RLU | Proliferation (luminescent ATP assay), Mean (Donor 3 GMA T-Cell Lines; T-cell line 165-B5G, 5 μg/mL antigen, Day 55 of culturing, No Antigen Value 846): 1666 RLU | Proliferation (luminescent ATP assay), Mean (Donor 3 GMA T-Cell Lines; T-cell line 165-B5G, 10 μg/mL antigen, Day 55 of culturing, No Antigen Value 846): 2705 RLU | Proliferation (luminescent ATP assay), Mean (Donor 3 GMA T-Cell Lines; T-cell line 165-C5G, 1.25 μg/mL antigen, autologous B-LCL): 527 RLU | Proliferation (luminescent ATP assay), Mean (Donor 3 GMA T-Cell Lines; T-cell line 165-C5G, 2.5 μg/mL antigen, autologous B-LCL): 680 RLU | Proliferation (luminescent ATP assay), Mean (Donor 3 GMA T-Cell Lines; T-cell line 165-C5G, 5 μg/mL antigen, autologous B-LCL): 3010 RLU | Proliferation (luminescent ATP assay), Mean (Donor 3 GMA T-Cell Lines; T-cell line 165-C5G, 10 μg/mL antigen, autologous B-LCL): 34438 RLU | Proliferation (luminescent ATP assay), Mean (Donor 3 GMA T-Cell Lines; T-cell line 165-E7G, 1.25 μg/mL antigen, autologous B-LCL, Day 55): 2785 RLU | Proliferation (luminescent ATP assay), Mean (Donor 3 GMA T-Cell Lines; T-cell line 165-E7G, 2.5 μg/mL antigen, autologous B-LCL, Day 55): 5270 RLU | Proliferation (luminescent ATP assay), Mean (Donor 3 GMA T-Cell Lines; T-cell line 165-E7G, 5 μg/mL antigen, autologous B-LCL, Day 55): 3559 RLU | Proliferation (luminescent ATP assay), Mean (Donor 3 GMA T-Cell Lines; T-cell line 165-E7G, 10 μg/mL antigen, autologous B-LCL, Day 55): 1983 RLU | Proliferation (luminescent ATP assay), Mean (Donor 3 GMA T-Cell Lines; T-cell line 165-E9G, 1.25 μg/mL antigen, autologous B-LCL): 132 RLU | Proliferation (luminescent ATP assay), Mean (Donor 3 GMA T-Cell Lines; T-cell line 165-E9G, 2.5 μg/mL antigen, autologous B-LCL): 129 RLU | Proliferation (luminescent ATP assay), Mean (Donor 3 GMA T-Cell Lines; T-cell line 165-E9G, 5 μg/mL antigen, autologous B-LCL): 89 RLU | Proliferation (luminescent ATP assay), Mean (Donor 3 GMA T-Cell Lines; T-cell line 165-E9G, 10 μg/mL antigen, autologous B-LCL): 91 RLU | Proliferation (luminescent ATP assay), Mean (Donor 3 GMA T-Cell Lines; T-cell line 165-F5G, 1.25 μg/mL antigen, autologous B-LCL): 126 RLU | Proliferation (luminescent ATP assay), Mean (Donor 3 GMA T-Cell Lines; T-cell line 165-F5G, 2.5 μg/mL antigen, autologous B-LCL): 113 RLU | Proliferation (luminescent ATP assay), Mean (Donor 3 GMA T-Cell Lines; T-cell line 165-F5G, 5 μg/mL antigen, autologous B-LCL): 136 RLU | Proliferation (luminescent ATP assay), Mean (Donor 3 GMA T-Cell Lines; T-cell line 165-F5G, 10 μg/mL antigen, autologous B-LCL): 129 RLU | Proliferation (luminescent ATP assay), Mean (Donor 3 GMA T-Cell Lines; T-cell line 165-F10G, 1.25 μg/mL antigen, autologous B-LCL): 1145 RLU | Proliferation (luminescent ATP assay), Mean (Donor 3 GMA T-Cell Lines; T-cell line 165-F10G, 2.5 μg/mL antigen, autologous B-LCL): 1270 RLU | Proliferation (luminescent ATP assay), Mean (Donor 3 GMA T-Cell Lines; T-cell line 165-F10G, 5 μg/mL antigen, autologous B-LCL): 1552 RLU | Proliferation (luminescent ATP assay), Mean (Donor 3 GMA T-Cell Lines; T-cell line 165-F10G, 10 μg/mL antigen, autologous B-LCL): 8012 RLU | Proliferation (luminescent ATP assay), Mean (Donor 3 GMA T-Cell Lines; T-cell line 165-H11G, 1.25 μg/mL antigen, autologous B-LCL): 15 RLU | Proliferation (luminescent ATP assay), Mean (Donor 3 GMA T-Cell Lines; T-cell line 165-H11G, 2.5 μg/mL antigen, autologous B-LCL): 326 RLU | Proliferation (luminescent ATP assay), Mean (Donor 3 GMA T-Cell Lines; T-cell line 165-H11G, 5 μg/mL antigen, autologous B-LCL): 357 RLU | Proliferation (luminescent ATP assay), Mean (Donor 3 GMA T-Cell Lines; T-cell line 165-H11G, 10 μg/mL antigen, autologous B-LCL): 178 RLU
